Read-outs that look alike come from different tables or passages of the source.
Tests used:
THP-1 cells = assay: Evaluation of cytotoxicity on THP-1 cells (MTS); format: cell-based, human; details: for Cytotoxicity on THP‐1 (100, 20, 4 µM) (%): 72 h, PMA-differentiated THP-1
Procedure: (§1) Finally, eighteen compounds were first screened for efficacy against L. infantum MHOM/TN/80/IPT1 promastigotes at a single dose of 20 µM for 72 hours.
(§2) L. infantum MHOM/TN/80/IPT1 (WHO international reference strain) was purchased from ATCC (ATCC® 50134™) and was cultured in Evans's Modified Tobie Medium (EMTM) at 26–28 °C. To test the compounds, parasites were resuspended in RPMI-PY medium as described previously. The human monocytic cell line THP-1 (ECACC 88081201) was cultured in RPMI-1640 medium supplemented with 10% heat-inactivated Fetal Bovine Serum (FBS), 100 μg/ml streptomycin, […] and maintained in a humidified incubator at 37 °C and 5% CO2. All the cell culture reagents were purchased from Sigma-Aldrich (St. Louis, MO, USA).
(§3) The cytotoxicity of the compounds was assessed on THP-1 cells seeded at a density of 5 × 10^5 cells per mL, 100μL/well in a 96-well plate and treated for 72 h with 20 ng/mL phorbol myristic acid (PMA) to induce differentiation into macrophages like cells. After cell adhesion to the plate, each molecule was tested at 4, 20 and 100 μM for 72 h at 37 °C.
(§4) Three selected compounds were further evaluated at different concentration, obtained from scalar dilutions 1:2 (from 100 µM to 3.12 μM) for 72 h at 37°C. The negative control (untreated THP-1 cells) and the positive control (miltefosine) were included in each experiment. Each condition was carried out in duplicate. To evaluate the compounds cytotoxicity, the CellTiter 96H Aqueous Non-Radioactive Cell Proliferation Assay (Promega), was used as described before. […]

[1] = test system: L. infantum MHOM/TN/80/IPT1 promastigotes; assay: L. infantum promastigotes viability assay (MTS); format: cell-based, Leishmania infantum; details: Leishmania infantum, 72 h; for inhibition at 20 µM: single dose 20 µM
Procedure: as §1, §2
Late log/stationary phase L. infantum promastigotes were resuspended in RPMI-PY medium at a density of 2.5×10^6 parasites/mL in 96-well plates (100μL/well). The anti-parasitic activity of the eighteen compounds of the library was initially investigated at a single dose of 20 μM for 72 h at 26 °C. […] Not treated parasites were included as negative control. As positive control, the anti-leishmanial drug miltefosine (Sigma-Aldrich, Milan, Italy) was used. Each condition was carried out in duplicate. To evaluate the promastigotes viability, the CellTiter 96H Aqueous Non-Radioactive Cell Proliferation Assay (Promega), based on the ability of viable cells to convert a soluble tetrazolium salt [3-(4.5-dimethylthiazol-2-yl)-5-(3-carboxymethoxy-phenyl)-2-(4-sulfophenyl)-2H-tetrazolium. MTS] to a formazan product, was performed. To this end, 20 μL of MTS/PMS (phenazinemethosulfate, Sigma-Aldrich) was added to 100 μL of culture medium and incubated at 26°C until formazan production. Absorbance was recorded on a Microplate Reader (Infinite® F50 Plus, Tecan) at 492 nm. The IC50 values were calculated using nonlinear regression curves in GraphPad Prism 8.0 (GraphPad Software,Inc., San Diego, CA). The equation used for data fitting was Y= 100/(1 + 10∧((Log IC50 −X)*HillSlope)) (hillslope not constrained), where X is the log of concentration and Y is the normalized response. […]

[2] = Evaluation of cytotoxicity on THP-1 cells (MTS); format: cell-based, human; details: human, 72 h
Procedure: as §1, §2, §3, §4

[3] = roughly determined from 100, 20 and 4 µM, read-out: CC50 interval on THP-1 cells

Structure (SMILES) | Cytotoxicity on THP‐1 (100, 20, 4 µM) (%) (THP-1 cells; 4 µM) | Cytotoxicity on THP‐1 (100, 20, 4 µM) (%) (THP-1 cells; 20 µM) | Cytotoxicity on THP‐1 (100, 20, 4 µM) (%) (THP-1 cells; 100 µM) | inhibition at 20 µM [1] | CC50 at 72 h [2, 3] | CC50 at 72 h ([2]; scalar dilutions 1:2 from 100 to 3.12 µM, mean (95% CI), read-out: THP‐1 CC50 (µM) (95% CI)) | SI (Selectivity index = CC50/IC50) (THP-1 cells; CC50 THP-1 (72 h) / IC50 L. infantum promastigotes (72 h)) | IC50 ([1]; scalar dilutions 2:3 from 20 to 1.17 µM, mean (95% CI))
NCC(c1c[nH]c2cc(-c3ccccc3)ccc12)c1c[nH]c2cc(-c3ccccc3)ccc12 [3aa, 2,2-bis(6-phenyl-1H-indol-3-yl)ethan-1-amine] | −18% | 97% | 87% | 96.2% | – | – | – | –
NCC(c1c[nH]c2cc(-c3ccc(F)cc3)ccc12)c1c[nH]c2cc(-c3ccc(F)cc3)ccc12 [3ab, 2,2-bis(6-(4-fluorophenyl)-1H-indol-3-yl)ethan-1-amine] | −33% | 97% | 85% | 97.1% | – | – | – | –
CC(C)Cc1ccc(-c2ccc3c(C(CN)c4c[nH]c5cc(-c6ccc(CC(C)C)cc6)ccc45)c[nH]c3c2)cc1 [3ac, 2,2-bis(6-(4-isobutylphenyl)-1H-indol-3-yl)ethan-1-amine] | −17% | 1% | 88% | ≤ 51.4% | 20 to 100 µM | – | – | –
COc1ccc(-c2ccc3c(C(CN)c4c[nH]c5cc(-c6ccc(OC)cc6)ccc45)c[nH]c3c2)cc1 [3ad, 2,2-bis(6-(4-methoxyphenyl)-1H-indol-3-yl)ethan-1-amine] | −12% | 96% | 86% | 95.1% | – | – | – | –
NCC(c1c[nH]c2cc(-c3cccc(Cl)c3)ccc12)c1c[nH]c2cc(-c3cccc(Cl)c3)ccc12 [3ag, 2,2-bis(6-(3-chlorophenyl)-1H-indol-3-yl)ethan-1-amine] | −7% | 97% | 84% | 93.6% | – | – | – | –
NCC(c1c[nH]c2cc(-c3cccc(-c4ccccc4)c3)ccc12)c1c[nH]c2cc(-c3cccc(-c4ccccc4)c3)ccc12 [3ah, 2,2-bis(6-([1,1'-biphenyl]-3-yl)-1H-indol-3-yl)ethan-1-amine] | −20% | 32% | 77% | – | 20 to 100 µM | – | – | –
NCC(c1c[nH]c2cc(-c3cccc(OCc4ccccc4)c3)ccc12)c1c[nH]c2cc(-c3cccc(OCc4ccccc4)c3)ccc12 [3ai, 2,2-bis(6-(3-(benzyloxy)phenyl)-1H-indol-3-yl)ethan-1-amine] | 1% | 90% | 72% | – | – | – | – | –
COc1cccc(-c2ccc3c(C(CN)c4c[nH]c5cc(-c6cccc(OC)c6)ccc45)c[nH]c3c2)c1 [3aj, 2,2-bis(6-(3-methoxyphenyl)-1H-indol-3-yl)ethan-1-amine] | 2% | 97% | 85% | 96.5% | – | – | – | –
COc1ccccc1-c1ccc2c(C(CN)c3c[nH]c4cc(-c5ccccc5OC)ccc34)c[nH]c2c1 [3ak, 2,2-bis(6-(2-methoxyphenyl)-1H-indol-3-yl)ethan-1-amine] | −4% | 97% | 86% | 96.5% | – | – | – | –
COc1cccc(OC)c1-c1ccc2c(C(CN)c3c[nH]c4cc(-c5c(OC)cccc5OC)ccc34)c[nH]c2c1 [3al, 2,2-bis(6-(2,6-dimethoxyphenyl)-1H-indol-3-yl)ethan-1-amine] | −5% | 47% | 84% | ≤ 51.4% | 20 to 100 µM | – | – | –
NCC(c1c[nH]c2cc(-c3cccc4ccccc34)ccc12)c1c[nH]c2cc(-c3cccc4ccccc34)ccc12 [3an, 2,2-bis(6-(naphthalen-1-yl)-1H-indol-3-yl)ethan-1-amine] | −15% | 95% | 79% | 97.8% | – | – | – | –
NCC(c1c[nH]c2cc(-c3ccc4ccccc4c3)ccc12)c1c[nH]c2cc(-c3ccc4ccccc4c3)ccc12 [3ao, 2,2-bis(6-(naphthalen-2-yl)-1H-indol-3-yl)ethan-1-amine] | −13% | 94% | 76% | 95.1% | – | – | – | –
CC(C)(C)OC(=O)n1cccc1-c1ccc2c(C(CN)c3c[nH]c4cc(-c5cccn5C(=O)OC(C)(C)C)ccc34)c[nH]c2c1 [3ap, di-tert-butyl 2,2'-((2-aminoethane-1,1-diyl)bis(1H-indole-3,6-diyl))bis(1H-pyrrole-1-carboxylate)] | 22% | 97% | 85% | 92.6% | – | – | – | –
NCC(c1c[nH]c2cc(/C=C/c3ccc(Cl)cc3)ccc12)c1c[nH]c2cc(/C=C/c3ccc(Cl)cc3)ccc12 [3ar, 2,2-bis(6-((E)-4-chlorostyryl)-1H-indol-3-yl)ethan-1-amine] | −32% | 95% | 66% | 95.1% | – | – | – | –
NCC(c1c[nH]c2ccc(-c3ccccc3)cc12)c1c[nH]c2ccc(-c3ccccc3)cc12 [3ba, 2,2-bis(5-phenyl-1H-indol-3-yl)ethan-1-amine] | −22% | 98% | 91% | 96.8% | – | – | – | –
CCCCCCCCCCCCCCCCOP(=O)([O-])OCC[N+](C)(C)C [Milt, miltefosine, reference compound] | −35% | 6% | 99% | 98.5% | – | 36.6 µM | 9.8 | 3.7 µM
